Assay results reported in patent US6579856B2, “Inhibition of stress activated protein kinase (SAPK) pathway and sensitization of cells to cancer therapies” (priority 1997, dated 2003).
Read-outs that look alike come from different tables or passages of the source.

What was measured:
Type in all cases: cell-based
T98G cells = test: PCR-stop assay of cisplatin-DNA adduct formation and repair
Description: The PCR-stop assay was used to quantitate cisplatin-DNA adduct formation and subsequent repair (Horton et al., Nucl. Acids. Res. 23:3810-3815 (1995), which is incorporated herein by reference). The assay is based on the observation that the efficiency of amplification of cisplatin-treated DNA is inversely proportional to the degree of platination. […] DNA was amplified quantitatively to produce a 2.7 kb product of the hypoxanthine phosphoribosyl transferase (HPRT) gene and a 0.15 kb nested fragment of the HPRT gene using ^32P-end labeled primers: 5′-[…]-3′(5′ primer; SEQ ID NO: 3) and 5′-[…]-3′ (3′ primer; SEQ ID NO: 4), for the 2.7 kb product; 5′-[…]-3′(5′ nested primer; SEQ ID NO: 5) and the above 3′ primer (SEQ ID NO: 4) for the 0.15 kb product. The 0.15 kb product contains undetectable levels of DNA damage under the present conditions and serves as an internal PCR control and as the basis for normalization of the amount of amplification of the 2.7 kb product. The number of lesions per 2.7 kb product was calculated as […] (cpm damaged DNA/cpm undamaged DNA).
As a control, […], which inhibits DNA repair by inhibiting ADP-ribosylation, was added with cisplatin.

[1] = system: PC3 prostate carcinoma cells; test: Cell viability, PC3 cells; conditions: for IC50: read-out: IC-50 (cisplatin)
Protocol: (§1) Cell viability was determined using the MTS method (Promega Corp.; Madison Wis.), measuring the […] of the formazan product 1 hr after adding the MTS (Gjerset et al., Mol. Carcin. 14:275-285 (1995), which is incorporated herein by reference). Cells were seeded into 96 well plates. After 24 hr, various concentrations of cisplatin or transplatin was added and incubation was continued for 1 hr. Medium was then removed and replaced with fresh medium and cell viability was determined 5 days later. Experiments were performed in quadruplicate; cell viability is expressed as the ratio of the viable cells following treatment to viable untreated cells.
PC3 prostate carcinoma cells were genetically modified to express dn-jun or a second dominant negative c-jun, Tam-67, both of which were under control of the metallothionein promoter (Brown et al., Oncogene 9:791-799 (1994), which is incorporated herein by reference).

T98G glioblastoma cells = test: Cell viability (MTS method), T98G cells; conditions: for IC50: 1 hr exposure, viability 5 days later, read-out: IC-50 for cisplatin
Protocol: as §1
The IC-50 for cisplatin was determined using the T98G cells that express dn-jun, control T98G cells and T98G cells stably transfected with the corresponding empty vector. […] In comparison, expression of dn-jun in T98G cells decreased the IC-50 to 21 μM, which represents a 7-fold increase in sensitivity.

SAPK (JNK) = SAPK (JNK) assay in T98G cells; conditions: for increase in SAPK (JNK) activity: T98G cells incubated with 250, 500 or 1000 μM for 1 hr
Protocol: T98G glioblastoma cells were maintained in Dulbecco's modified minimal medium containing 5% fetal calf serum. SAPK (JNK) assays were performed as described by Hibi et al. (supra, 1993). c-jun and dn-jun expression were quantitated using the methods and antibodies described by Grover-Bardwick et al. (Carcinogenesis 15:1667-1674 (1994), which is incorporated herein by reference).
Cisplatin, but not transplatin, forms covalent crosslinks between adjacent guanine or guanine-adenine residues. […] As a control, UV-C irradiation was performed and similarly produced a dose-dependent increase in SAPK activity.

[2] = system: U87 human glioblastoma cells; test: Cell viability, U87 cells; conditions: U87 cells expressing dn-jun vs parental U87 cells
Protocol: as §1
(§2) In other experiments, U87 human glioblastoma cells and MCF-7 breast cancer cells were stably transfected with the vector expressing dn-jun and clonal lines were isolated.

AP-1 = test: Basal AP-1 activity in dn-jun transfected T98G cells; conditions: T98G cells stably expressing dn-jun
Description: (§3) T98G cells were stably transfected with a cDNA encoding the dn-jun (Smeal et al., supra, 1991; Smeal et al., supra, 1992) and clonal lines were obtained. Expression of dn-jun had no effect on basal AP-1 activity or on the enzyme activity of SAPK. In contrast, dn-jun expression inhibited phosphorylation-dependent activation of transcription.

[3] = system: MCF-7 breast cancer cells; test: Cell viability, MCF-7 cells; conditions: MCF-7 cells expressing dn-jun vs parental cells
Protocol: as §1, §2

[4] = system: phosphorylation-dependent activation of transcription; test: Phosphorylation-dependent activation of transcription in dn-jun transfected T98G cells; conditions: T98G cells stably expressing dn-jun
Description: as §3

[5] = ABZ added with cisplatin, 6 hr recovery period

Nc1ccc(-c2ccc(N)cc2N)cc1 [ABZ, 2-aminobenzidine]
DNA repair (T98G cells; [5]): no repair was observed | level of DNA damage (T98G cells; [5]): substantially increased

N.N.[Cl][Pt][Cl] [cisplatin]
IC50 ([1]; PC3 cells expressing dn-jun): 18 µM | IC50 ([1]; control PC3 cells): 109 µM | IC50 (T98G glioblastoma cells; T98G cells expressing dn-jun): 21 µM | IC50 (T98G glioblastoma cells; control (untransfected) T98G cells): 147 µM | increase in SAPK (JNK) activity (SAPK (JNK)): up to 10 fold | DNA damage (T98G cells; DNA isolated immediately after 1 hr treatment with 0, 100 or 200 μM): increasing levels of DNA damage

N.N.[Cl][Pt+2][Cl] [transplatin]
increase in SAPK (JNK) activity (SAPK (JNK)): no effect was observed

B1: dn-jun: dominant negative mutant of c-jun containing alanine-63 and alanine-73 substitutions; cannot be phosphorylated by SAPK (protein, UniProt P05412 1-331, looked up, variant S63A S73A)
Transcription factor Jun: MTAKMETTFYDDALNASFLPSESGPYGYSNPKILKQSMTLNLADPVGSLKPHLRAKNSDLLTAPDVGLLKLAAPELERLIIQSSNGHITTTPTPTQFLCPKNVTDEQEGFAEGFVRALAELHSQNTLPSVTSAAQPVNGAGMVAPAVASVAGGSGSGGFSASLHSEPPVYANLSNFNPGALSSGGGAPSYGAAGLAFPAQPQQQQQPPHHLPQQMPVQHPRLQALKEEPQTVPEMPGETPPLSPIDMESQERIKAERKRMRNRIAASKCRKRKLERIARLEEKVKTLKAQNSELASTANMLREQVAQLKQKVMNHVNSGCQLMLTQQLQTF
increased sensitivity to cisplatin ([1]; PC3 cells expressing dn-jun vs control cells): greater than 7 fold | increased sensitivity to cisplatin ([1]; PC3 cells expressing dn-jun vs vector control cells): greater than 9 fold | increased sensitivity to cisplatin [2]: 2.5 fold | basal AP-1 activity (AP-1): no effect | enzyme activity of SAPK (SAPK (JNK); T98G cells stably expressing dn-jun): no effect | increased sensitivity to cisplatin [3]: 3 fold | phosphorylation-dependent activation of transcription [4]: inhibited

B2: c-jun: c-jun transcription factor, the SAPK substrate, with increased expression in T98G cells (protein, UniProt P05412 1-331, looked up)
Transcription factor Jun: MTAKMETTFYDDALNASFLPSESGPYGYSNPKILKQSMTLNLADPVGSLKPHLRAKNSDLLTSPDVGLLKLASPELERLIIQSSNGHITTTPTPTQFLCPKNVTDEQEGFAEGFVRALAELHSQNTLPSVTSAAQPVNGAGMVAPAVASVAGGSGSGGFSASLHSEPPVYANLSNFNPGALSSGGGAPSYGAAGLAFPAQPQQQQQPPHHLPQQMPVQHPRLQALKEEPQTVPEMPGETPPLSPIDMESQERIKAERKRMRNRIAASKCRKRKLERIARLEEKVKTLKAQNSELASTANMLREQVAQLKQKVMNHVNSGCQLMLTQQLQTF
viability of cells to cisplatin exposure (T98G glioblastoma cells; increased expression of c-jun in T98G cells): somewhat increased
